# Laboratory results taken from paper PMC9225045, “Purification and Characterization of a Novel α-L-Rhamnosidase from Papiliotrema laurentii ZJU-L07 and Its Application in Production of Icariin from Epimedin C” (Journal of Fungi, 2022).
# Like-named read-outs stand apart in the source and are kept apart here.
# Experiments:
# [1] = tested on: T1, α-L-rhamnosidase from P. laurentii ZJU-L07; details: 1.0-5.0 mM substrate; pH and temperature of the kinetic assay not stated separately
# T1 construct: gene EC 3.2.1.40
# From the text: Lineweaver-Burk; HPLC for epimedin C and icariin on α-L-rhamnosidase from P. laurentii ZJU-L07 | When epimedin C was used as a nature substrate to determine the kinetic parameters
# [2] = tested on: T2, α-L-rhamnosidase from P. laurentii ZJU-L07; test: p-nitrophenol release at […] nm, Lineweaver-Burk; assay type: biochemical, Papiliotrema laurentii; details: pH 7.0 citric acid-Na2HPO4, 55 °C (standard assay); 2.0-10.0 mM substrate
# T2 construct: gene EC 3.2.1.40; native intracellular enzyme purified from cells of the soil isolate (strain mutagenized by gamma rays and nitrosoguanidine); 100 kDa by SDS-PAGE
SMILES,Km [1] [µM],Km [2] [µM]
COc1ccc(-c2oc3c(CC=C(C)C)c(O[C@@H]4O[C@H](CO)[C@@H](O)[C@H](O)[C@H]4O)cc(O)c3c(=O)c2O[C@@H]2O[C@@H](C)[C@H](O)[C@@H](O)[C@H]2O[C@@H]2O[C@@H](C)[C@H](O)[C@@H](O)[C@H]2O)cc1 [epimedin C],3280,–
C[C@@H]1O[C@@H](Oc2ccc([N+](=O)[O-])cc2)[C@H](O)[C@H](O)[C@H]1O [p-nitrophenyl-α-L-rhamnopyranoside],–,1380
